From patent publication US10597366B2, “Aryl ethers and uses thereof” (Peloton Therapeutics, Inc., priority 2013, dated 2020)

Each compound was assayed on 786-O-Hif-Luc cells (luciferase gene driven by multiple HIF responsive elements) (assay: Luciferase Assay). Conditions: 24 h, 786-O-Hif-Luc cells, about 24 hours; read-out: Mean Luciferease EC50.
Assay type: cell-based
Protocol: A pool of infected cells were then selected against 2 μg/mL of puromycin (P8833, Sigma) for 10 days followed by limited dilution to select single clones.
Each concentration was tested in triplicate. After about 24 hours, luciferase activity was determined using ONE-Glo Luciferase Assay Reagent (E6110, Promega) following the manufacturer's recommended procedure. EC50 were calculated by using Dotmatics software.

SMILES	EC50 [nM]
O=S(=O)(c1ccc(Oc2cncc(Cl)c2)c2c1[C@H](O)CC2)C(F)F [Compound 3, (R)-4-((5-chloropyridin-3-yl)oxy)-7-((difluoromethyl)sulfonyl)-2,3-dihydro-1H-inden-1-ol]	960
O=S(=O)(c1ccc(Oc2cncc(F)c2)c2c1[C@H](O)CC2)C(F)F [Compound 5, (R)-7-((difluoromethyl)sulfonyl)-4-((5-fluoropyridin-3-yl)oxy)-2,3-dihydro-1H-inden-1-ol]	420
O=C1CCc2c(Oc3cc(F)cc(Cl)c3)ccc(S(=O)(=O)C(F)F)c21 [Compound 18, 4-(3-chloro-5-fluorophenoxy)-7-((difluoromethyl)sulfonyl)-2,3-dihydro-1H-inden-1-one]	2670
O=S(=O)(c1ccc(Oc2cc(F)cc(F)c2)c2c1C=CC2)C(F)F [Compound 21, 4-((Difluoromethyl)sulfonyl)-7-(3,5-difluorophenoxy)-1H-indene]	1540
O=S(=O)(c1ccc(Oc2cc(F)cc(F)c2)c2c1CC(O)C2)C(F)F (stereo not shown) [Compound 22, 4-((Difluoromethyl)sulfonyl)-7-(3,5-difluorophenoxy)-2,3-dihydro-1H-inden-2-ol]	1290
O=S(=O)(c1ccc(Oc2cncc(Cl)c2)c2c1[C@H](O)C(F)(F)C2)C(F)F [Compound 25, (S)-4-((5-chloropyridin-3-yl)oxy)-7-((difluoromethyl)sulfonyl)-2,2-difluoro-2,3-dihydro-1H-inden-1-ol]	18
N#Cc1cncc(Oc2ccc(S(=O)(=O)C(F)F)c3c2CC(F)(F)[C@H]3O)c1 [Compound 27, (S)-5-((7-((Difluoromethyl)sulfonyl)-2,2-difluoro-1-hydroxy-2,3-dihydro-1H-inden-4-yl)oxy)nicotinonitrile]	160
Cc1c(S(=O)(=O)C(F)F)ccc(Oc2cc(F)cc(Cl)c2)c1C#N [Compound 32, 6-(3-Chloro-5-fluorophenoxy)-3-((difluoromethyl)sulfonyl)-2-methylbenzonitrile]	1900
N#Cc1c(S(=O)(=O)C(F)F)ccc(Oc2cc(F)cc(Cl)c2)c1Cl [Compound 38, 2-Chloro-3-(3-chloro-5-fluorophenoxy)-6-((difluoromethyl)sulfonyl)benzonitrile]	390
O=S(=O)(c1ccc(Oc2cc(F)cc(Cl)c2)c(Cl)c1CCl)C(F)F [Compound 46, 2-Chloro-1-(3-chloro-5-fluorophenoxy)-3-(chloromethyl)-4-((difluoromethyl)sulfonyl)benzene]	8100
Cc1c(S(C)(=O)=O)ccc(Oc2cc(F)cc(F)c2)c1C#N [Compound 52, 6-(3,5-Difluorophenoxy)-2-methyl-3-(methylsulfonyl)benzonitrile]	1000
Cc1c(S(C)(=O)=O)ccc(Oc2cc(F)cc(Cl)c2)c1C(F)F [Compound 53, 1-(3-Chloro-5-fluorophenoxy)-2-(difluoromethyl)-3-methyl-4-(methylsulfonyl)benzene]	3300
CS(=O)(=O)c1ccc(Oc2cc(F)cc(Cl)c2)c(C(F)F)c1CO [Compound 54, (3-(3-Chloro-5-fluorophenoxy)-2-(difluoromethyl)-6-(methylsulfonyl)phenyl)methanol]	350
O=S(=O)(c1ccc(Oc2cc(F)cc(Cl)c2)c2c1[C@H](O)CC2)C(F)(F)F [Compound 56, (R)-4-(3-Chloro-5-fluorophenoxy)-7-((trifluoromethyl)sulfonyl)-2,3-dihydro-1H-inden-1-ol]	68
O=S(=O)(CF)c1ccc(Oc2cc(F)cc(F)c2)c2c1C(O)CC2 [Compound 59, (R)-4-(3,5-Difluorophenoxy)-7-((fluoromethyl)sulfonyl)-2,3-dihydro-1H-inden-1-ol]	90
N=S(=O)(c1ccc(Oc2cc(F)cc(Cl)c2)c(Br)c1Cl)C(F)(F)F (stereo not shown) [Compound 75, (3-bromo-2-chloro-4-(3-chloro-5-fluorophenoxy)phenyl)(imino)(trifluoromethyl)-λ^6-sulfanone]	8800
CS(=O)(=O)c1ccc(Oc2cc(F)cc(Cl)c2)c2c1C(O)CC2 (stereo not shown) [Compound 90, 4-(3-Chloro-5-fluorophenoxy)-7-(methylsulfonyl)-2,3-dihydro-1H-inden-1-ol]	850
CS(=O)(=O)c1ccc(Oc2cc(F)cc(Cl)c2)c(C(F)F)c1C#N [Compound 92, 3-(3-Chloro-5-fluorophenoxy)-2-(difluoromethyl)-6-(methylsulfonyl)benzonitrile]	490

Results, then the compound that gave them:

EC50 [nM]	SMILES
5900	N#Cc1cc(F)cc(Oc2ccc(S(=O)(=O)C(F)(F)F)c3c2[C@@H](N)C[C@H]3O)c1 (relative stereo) [Compound 279, 3-((cis-3-amino-1-hydroxy-7-((trifluoromethyl)sulfonyl)-2,3-dihydro-1H-inden-4-yl)oxy)-5-fluorobenzonitrile]
100	N#CN=S(=O)(CF)c1ccc(Oc2cc(F)cc(C#N)c2)c2c1[C@H](O)C(F)(F)C2 (single isomer, unassigned) [Compound 285]
75	COc1cc(F)cc(Oc2ccc(S(=O)(=O)C(F)F)c3c2CC[C@H]3O)c1 [Compound 6, (R)-7-((difluoromethyl)sulfonyl)-4-(3-fluoro-5-methoxyphenoxy)-2,3-dihydro-1H-inden-1-ol]
16	N#Cc1cc(F)cc(Oc2ccc(S(=O)(=O)C(F)F)c3c2CC(F)(F)C3O)c1 (stereo not shown) [Compound 11, 3-[7-(difluoromethylsulfonyl)-2,2-difluoro-1-hydroxy-indan-4-yl]oxy-5-fluoro-benzonitrile]
1910	O=S(=O)(c1ccc(Oc2cc(F)cc(F)c2)c2c1CCC2)C(F)F [Compound 20, 4-((Difluoromethyl)sulfonyl)-7-(3,5-difluorophenoxy)-2,3-dihydro-1H-indene]
68	O=S(=O)(c1ccc(Oc2ccc(F)c(Cl)c2)c2c1[C@H](O)C(F)(F)C2)C(F)F [Compound 26, (S)-4-(3-Chloro-4-fluorophenoxy)-7-((difluoromethyl)sulfonyl)-2,2-difluoro-2,3-dihydro-1H-inden-1-ol]
2900	Cc1c(S(=O)(=O)C(F)F)ccc(Oc2cc(F)cc(C#N)c2)c1C#N [Compound 33, 6-(3-Cyano-5-fluorophenoxy)-3-((difluoromethyl)sulfonyl)-2-methylbenzonitrile]
> 20000	N#Cc1c(Oc2cc(F)cc(Cl)c2)ccc(S(=O)(=O)C(F)F)c1CO [Compound 35, 6-(3-Chloro-5-fluorophenoxy)-3-((difluoromethyl)sulfonyl)-2-(hydroxymethyl)benzonitrile]
600	N#Cc1cc(F)cc(Oc2ccc(S(=O)(=O)C(F)F)c(C#N)c2Cl)c1 [Compound 39, 2-Chloro-3-(3-cyano-5-fluorophenoxy)-6-((difluoromethyl)sulfonyl)benzonitrile]
1200	N#Cc1cccc(Oc2ccc(S(=O)(=O)C(F)F)c(C#N)c2Cl)c1 [Compound 40, 2-Chloro-3-(3-cyanophenoxy)-6-((difluoromethyl)sulfonyl)benzonitrile]
450	N#Cc1cc(F)cc(Oc2ccc(S(=O)(=O)C(F)F)c(CO)c2Cl)c1 [Compound 42, 3-(2-Chloro-4-((difluoromethyl)sulfonyl)-3-(hydroxymethyl)phenoxy)-5-fluorobenzonitrile]
790	N#Cc1cccc(Oc2ccc(S(=O)(=O)C(F)F)c(CO)c2Cl)c1 [Compound 43, 3-(2-Chloro-4-((difluoromethyl)sulfonyl)-3-(hydroxymethyl)phenoxy)benzonitrile]
1600	Cc1c(S(C)(=O)=O)ccc(Oc2cc(F)cc(Cl)c2)c1C#N [Compound 50, 6-(3-Chloro-5-fluorophenoxy)-2-methyl-3-(methylsulfonyl)benzonitrile]
160	O[C@@H]1CCc2c(Oc3cc(F)cc(F)c3)ccc(C(F)(F)F)c21 [Compound 58, (R)-4-(3,5-Difluorophenoxy)-7-(trifluoromethyl)-2,3-dihydro-1H-inden-1-ol]
110	O=S(=O)(CF)c1ccc(Oc2cc(F)cc(Cl)c2)c2c1[C@H](O)CC2 [Compound 61, (R)-4-(3-Chloro-5-fluorophenoxy)-7-((fluoromethyl)sulfonyl)-2,3-dihydro-1H-inden-1-ol]
180	N#Cc1cc(F)cc(Oc2ccc(S(=O)(=O)CF)c3c2CC[C@H]3O)c1 [Compound 62, (R)-3-Fluoro-5-((7-((fluoromethyl)sulfonyl)-1-hydroxy-2,3-dihydro-1H-inden-4-yl)oxy)benzonitrile]
6	O=S(=O)(CF)c1ccc(Oc2cc(F)cc(Cl)c2)c2c1[C@H](O)C(F)(F)C2 [Compound 65, (S)-4-(3-Chloro-5-fluorophenoxy)-2,2-difluoro-7-((fluoromethyl)sulfonyl)-2,3-dihydro-1H-inden-1-ol]
850	N#Cc1cccc(Oc2ccc(S(=O)(=O)C(F)F)c(CO)c2Br)c1 [Compound 81, 3-(2-Bromo-4-((difluoromethyl)sulfonyl)-3-(hydroxymethyl)phenoxy)benzonitrile]
11800	NCc1c(S(=O)(=O)C(F)F)ccc(Oc2cc(F)cc(Cl)c2)c1Br [Compound 85, (2-Bromo-3-(3-chloro-5-fluorophenoxy)-6-((difluoromethyl)sulfonyl)phenyl)methanamine]
2300	CCS(=O)(=O)c1ccc(Oc2cc(F)cc(Cl)c2)c2c1C(O)CC2 (stereo not shown) [Compound 91, 4-(3-Chloro-5-fluorophenoxy)-7-(ethylsulfonyl)-2,3-dihydro-1H-inden-1-ol]
680	CS(=O)(=O)c1ccc(Oc2cc(F)cc(F)c2)c(C(F)F)c1C#N [Compound 93, 2-(Difluoromethyl)-3-(3,5-difluorophenoxy)-6-(methylsulfonyl)benzonitrile]

Same assay, conditions: 24 h, read-out: Mean Luciferease EC50

EC50 [nM]	SMILES
110	N#Cc1cc(F)cc(Oc2ccc(S(=O)(=O)C(F)(F)F)c3c2CC[C@H]3O)c1 [Compound 57, (R)-3-Fluoro-5-((1-hydroxy-7-((trifluoromethyl)sulfonyl)-2,3-dihydro-1H-inden-4-yl)oxy)benzonitrile]
